# Source: patent US20030161893A1, “PTPase inhibitors and methods of using the same” (priority 2001, published 2003)
# Key:
# SHP-1 = target: T1, SHP-1 (Mus musculus, UniProt P29351); assay: In vitro PTPase assay, GST/SHP-1 fusion protein; format: biochemical
# T1 construct: made in house
# Protocol: In vitro PTPase activities were measured using the commercial protein tyrosine phosphatase assay kit (Upstate Biotechnology, Inc. (“UBI”)) following established procedure known to one of skill in the art. […] 100 μl of Malachite Green solution was added and incubated for 5 minutes, and the absorbance at 660 nm was measured after 5 minutes.
# The beads were then either subjected to in vitro PTPase assays or washed 3 times in Tris buffer then subjected to in vitro PTPase assays.
# Briefly, individual PTPases (0.1 μg/reaction) in 50 μL of PTPase buffer (50 mM Tris, pH 7.4) were incubated at 22° C. for 10 minutes or as indicated in the absence or presence of inhibitory compounds. […] […] […] Relative PTPase activities were calculated based on the formula: (PTPase activity in the presence of an inhibitory compound/PTPase activity in the absence of the compound)×100%. To assess the reversibility of PTPase inhibition, GST fusion proteins of the PTPases bound on glutathione beads (Pharmacia) were pre-incubated with cold Tris buffer (50 mM Tris, pH 7.0) or Tris buffer containing the inhibitor at 4° C. for 30 minutes. The beads were then washed three times in cold Tris buffer or not washed prior to subjecting to in vitro PTPase assays.
# MKP1 = target: T2, MKP1 (Homo sapiens, UniProt P28562); assay: In vitro PTPase assay, GST/MKP1 fusion protein; format: biochemical
# T2 construct: a pGEX construct containing the coding region of MKP1 cDNA derived by RT-PCR; made in house; host or cells: DH5a bacteria (E. coli)
# T2 sequence (P28562 1-367): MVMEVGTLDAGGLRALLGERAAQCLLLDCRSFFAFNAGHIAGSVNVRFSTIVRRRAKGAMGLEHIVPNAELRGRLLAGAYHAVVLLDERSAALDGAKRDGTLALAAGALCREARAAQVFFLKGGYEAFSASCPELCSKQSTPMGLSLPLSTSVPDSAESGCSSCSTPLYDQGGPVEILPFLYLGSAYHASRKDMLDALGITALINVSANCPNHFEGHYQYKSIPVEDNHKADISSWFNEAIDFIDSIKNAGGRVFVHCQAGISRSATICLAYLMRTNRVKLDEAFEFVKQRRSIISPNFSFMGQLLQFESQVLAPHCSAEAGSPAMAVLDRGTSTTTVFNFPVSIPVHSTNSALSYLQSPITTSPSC
# Baf3 cells = assay: Induction of cellular protein tyrosine phosphorylation in Baf3 cells (Western blotting); format: cell-based, murine; conditions: Baf3 deprived of IL-3; proteins of about 55 and 32 kDa
# Protocol: For induction of cellular protein phosphorylation by sodium stibogluconate or pervanadate, Baf3 cells were incubated in 0.1% FCS-RPMI 1640 medium at 37° C. for 16 hours. The cells were then washed twice in RPMI 1640 medium and incubated with sodium stibogluconate or pervanandate (0.1 mM) for various times prior to termination by lysing cells in cold lysis buffer (50 mM Tris, pH 7.4; 150 mM NaCl; 0.2 mM Na3VO4; 20 mm NaF; 1% Nonidet P-40; 2 mM PMSF; 20 μg/ml of Aprotinin and 1 mM of sodium molybdic acid). To determine the effect of sodium stibogluconate or potassium antimonyl tartrate on IL-3-induced Jak/Stat phosphorylation, Baf3 cells were deprived of the growth factor for 16 hours in 0.1% FCS RPMI 1640 medium and then incubated with or without sodium stibogluconate or potassium antimonyl tartrate for 10 minutes. IL-3 was next added to the cell suspension and incubated for various times. The Cells were then harvested and lysed in cold lysis buffer at 4° C. for 45 minutes. Total cell lysates (TCL) were separated in SDS-PAGE gels, blotted onto nitrocellulose membrane (Schleicher & Schuell), probed with specific antibodies and detected using an enhanced chemiluminescence kit (ECL, Amersham, Arlington Heights, Ill.).
# Stat1 = assay: IFN-alpha-induced Stat1 tyrosine phosphorylation, WiT49-N1 cells; format: cell-based, human
# Protocol: For induction of Stat1 tyrosine phosphorylation by IFN-alpha in the absence or presence of sodium stibogluconate, cells grown in 10% FCS RPMI 1640 medium at 37° C. were stimulated with IFN-alpha (50 u/ml) for various time points and treated with or without sodium stibogluconate for 5 minutes prior to termination by lysing the cells in cold lysis buffer (1% NP-40; 50 mM Tris, pH 7.4; 100 mM NaCl; 1 mM EDTA, 10% glycerol, 10 mM sodium molybdic acid and 4 mM AEBSF).
# Cell lysates were prepared by lysing cells in cold lysis buffer for 30 min and cleared by centrifuging at 14,000 rpm at 4° C. for 15 min. For SDS-PAGE, cell lysates were mixed with equal volume of 2×SDS-PAGE sample buffer, heated at 90° C. for 5 min and separated in 10% SDS-PAGE gels. Cellular proteins in SDS-PAGE gels were transferred to nitrocellulose membrane (Schleicher & Schuell, Keene, N.H.), blocked in 5% milk, probed with antibodies and detected by using an enhanced chemiluminescence kit (ECL, Amersham, Arlington Heights, Ill.).
# LoVo cells = assay: Cell growth assay (MTT), LoVo colon cancer cells; format: cell-based, human; conditions: 100 μg/ml, day 6
# Protocol: NIH3T3 (Yi, et al., Blood 85, 87 (1995)), WM9 (Forsberg, et al., Proc. Nat. Acad Sci. USA 90, 393 (1993)), DU145 (Mickey, et al., Cancer Res. 37, 4049 (1977)), LoVo (Drewinko, et al., Cancer Res. 36, 467 (1976)), HEY (Buick, et al., Cancer Res. 45, 3668 (1985)), U251 (Yoshida, et al., Cancer 50, 410 (1982)), A549 (Giard, et al., J. Natl. Cancer Inst. 51, 1417 (1973)) and SK-N-SH (Helson, et al., Cancer Res. 35, 2594 (1975)) cell lines have been described and were cultured in RPMI 1640 supplemented with 10% fetal calf serum (FCS). For measurement of sodium stibogluconate effects on cell growth in vitro, cells were cultured in the absence (−) or presence (+) of various amounts of sodium stibogluconate for 6 days with viable cells quantified by MTT assays (Mosmann, J. Imunol. Methods 65, 55 (1983)). Percentages of growth inhibition by sodium stibogluconate were calculated (+/−×%).
# T1 sequence (P29351 whole entry, the tested form may be a part): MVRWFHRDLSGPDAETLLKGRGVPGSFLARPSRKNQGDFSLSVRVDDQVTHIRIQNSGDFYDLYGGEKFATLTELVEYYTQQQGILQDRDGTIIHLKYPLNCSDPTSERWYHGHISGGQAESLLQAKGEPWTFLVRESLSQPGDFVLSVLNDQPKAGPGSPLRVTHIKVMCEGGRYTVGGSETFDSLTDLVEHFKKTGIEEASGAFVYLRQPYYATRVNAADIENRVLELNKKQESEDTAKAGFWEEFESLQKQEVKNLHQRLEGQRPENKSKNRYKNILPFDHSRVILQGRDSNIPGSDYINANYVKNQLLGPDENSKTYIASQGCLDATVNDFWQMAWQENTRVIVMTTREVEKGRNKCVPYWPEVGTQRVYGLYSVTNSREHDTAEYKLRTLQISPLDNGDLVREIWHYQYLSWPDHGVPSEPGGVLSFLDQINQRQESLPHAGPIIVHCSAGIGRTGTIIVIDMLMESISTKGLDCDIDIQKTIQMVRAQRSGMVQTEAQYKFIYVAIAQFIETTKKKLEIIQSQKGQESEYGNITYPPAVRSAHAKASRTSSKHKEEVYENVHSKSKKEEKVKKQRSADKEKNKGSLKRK
smiles,measurement,setting,value
O.O.O.O.O.O.O.O.O.O=C([O-])[C@@H]1[O][Sb]2([O-])([O][Sb]34([OH])[O][C@H]([C@H](O)CO)[C@H]([O]3)[C@H](C(=O)[O-])[O]4)[O][C@H]([C@H](O)CO)[C@@H]1[O]2.[Na+].[Na+].[Na+] [sodium stibogluconate],"dephosphorylation of pNPP by SHP-1, SHP-2 and PTP1B",SHP-1; pNPP substrate,similarly inhibited
same,activity against recombinant SHP-1 of HPLC fractions and parental mixture,SHP-1; parental mixture at Sb concentration of 10 μg/ml,inactivated SHP-1
same,reversibility of SHP-1 inhibition by washing,"SHP-1; pre-incubated at 4° C. 30 minutes, beads washed 3 times",not affected by washing
same,inhibition of MKP1,MKP1,no obvious effects
same,inhibitory activity against MKP1,MKP1,no obvious inhibitory activity
same,cellular protein tyrosine phosphorylation,Baf3 cells,induced protein tyrosine phosphorylation
same,IFN-alpha-induced Stat1 tyrosine phosphorylation,Stat1,failed to enhance
same,"cell killing, LoVo",LoVo cells,near-complete cell killing
